Consider three compounds from the NIST ThermoML archive (doi:10.1021/je400109a).

This data set is described as follows: an = ratio of the nth substance listed. The conditions noted are these: 101 kPa, Liquid, Vibrating tube method.

What is called mass density is the mass of a sample divided by its volume.

Molecules are shown by their SMILES. ± gives the expanded uncertainty stated by the source.

For `Cn1cc[n+](C)c1.F[B-](F)(F)F` [1,3-dimethyl-1H-imidazolium tetrafluoroborate] + O, under “313.15 K, a1 = 0.75”, the mass density stood at 1098.4 ± 0.3 kg/m3.
With `Cn1cc[n+](C)c1.[Cl-]` [1,3-dimethylimidazolium chloride] + O, the mass density (313.15 K, a1 = 0.75) was 1096.1 ± 0.3 kg/m3.
For the compound `COP(=O)([O-])OC.Cn1cc[n+](C)c1` [1,3-dimethylimidazolium dimethylphosphate] + O, the mass density reads like this: (293.15 K, a1 = 0.5) 1086.4 ± 0.2 kg/m3; (293.15 K, a1 = 0.75) 1112.3 ± 0.3 kg/m3; (313.15 K, a1 = 0.5) 1076.8 ± 0.2 kg/m3; (313.15 K, a1 = 0.75) 1104.1 ± 0.2 kg/m3; (333.15 K, a1 = 0.5) 1076.6 ± 0.2 kg/m3; (333.15 K, a1 = 0.75) 1103.3 ± 0.2 kg/m3.
